{"source": "patent US11660331B2", "about": "“Heroin vaccine” (THE SCRIPPS RESEARCH INSTITUTE, priority 2017, dated 2023)", "tested_on": "anti-heroin polyclonal antibodies from Group G6", "assay": "SPR competitive binding assay, Her-BSA-loaded sensor chip (Biacore 3000)", "design": "species or system mouse", "settings": "sera from Group G6 (vaccine stored as liquid at RT for 30 days)", "data": [{"smiles": "CN1CC[C@]23c4c5ccc(O)c4O[C@H]2[C@@H](O)C=C[C@H]3[C@H]1C5", "note": "[morphine]", "values": [{"measurement": "cross-reactivity to the polyclonal antibodies", "result": "low cross-reactivity"}]}]}
